Residues, ends and D or L forms follow the SMILES beside them. *: point of attachment. Tos = Cc1ccc(S(=O)(=O)*)cc1
| SMILES | melting point |
| --- | --- |
| CC(C)(C)OC(=O)NNC(=O)c1ccnc2[nH]c(CCc3ccccc3)cc12 | 187 to 188 °C |
| CCCc1c(OCCOc2ccc(S(=O)(=O)c3nnn[nH]3)cc2)ccc(C(C)=O)c1O | 88 to 90 °C |
| CC(C)C1(C)N=C(c2nc3occ([N+](=O)[O-])c3cc2C(=O)O)NC1=O (centres undefined) | 220 to 237 °C |
| C[C@H]([C@](O)(Cn1cncn1)c1ccc(F)cc1F)S(=O)(=O)N1CCCC1 | 149 to 150 °C |
| CCN1C(=O)c2cccnc2Nc2cccc(C)c21 | 186 to 188 °C |
| COc1ccc(CN(C)CCCCc2ccc(NC(=O)c3cccc4c(=O)c5cccc(F)c5[nH]c34)cc2)cc1OC | 131 °C |
| CCOC(=O)c1nc2cccnc2n(-c2ccc(Cl)cc2)c1=O | 158 °C |
| CC1CCC2(OC1)OC1CC3C4CCC5CC(OCCO)CCC5(C)C4CCC3(C)C1C2C (centres undefined) | 207 to 208 °C |
| CC(C)c1ccc(C2COc3ccc(Br)cc32)cc1 (centres undefined) | 90 to 91 °C |
| CCOC(=O)C1=C(C)NC(=S)N(C(=O)OC(C)C)C1c1cccc([N+](=O)[O-])c1 (centres undefined) | 150 to 152 °C |
| CC(C)CN1CCC(CNc2ccc(Cl)cc2C(=O)Nc2ccc(Cl)cn2)CC1 | 121 to 122 °C |
| CCN(CC)c1ccc(/C=C/c2c(F)cccc2F)cc1 | 70 to 71 °C |
| CCn1c(=O)c2c(nc(/C=C/c3cc(OC)c(OC(=O)c4ccccc4)c(OC)c3)n2C)n(CC)c1=O | 196 °C |
| O=C(O)CCC(O)c1ccc(-c2ccc(Br)cc2)cc1 (centres undefined) | 127 °C |
| O=C(NC/C=C\COc1cc(CN2CCCCC2)ccn1)c1csnn1 | 70 to 72 °C |
| CC(C(=O)O)c1ccc(C(=O)c2ccc(Br)o2)cc1 (centres undefined) | 108 to 110 °C |
| CCc1cc(Oc2ccc([C@H](O)[C@@H](Cc3cccc(OC(F)(F)C(F)F)c3)C(=O)O)cc2)ccc1Cl (racemic) | 75 to 76 °C |
| CCCn1cc(Cc2ccc(C(=O)NS(=O)(=O)c3ccccc3C)cc2OC)c2cc(C=CCC(=O)N(C)C)ccc21 | 119 to 121 °C |
| COc1nc(C)nc(NC(=O)NS(=O)(=O)c2ccccc2CCC(F)(F)F)n1 | 157 to 158 °C |
| O=C1NC(=O)C(S(=O)(=O)c2cccc3c(Br)cccc23)S1 (centres undefined) | 189 to 190 °C |
| COc1cc(C)c2c(c1OC)CCC1C(=O)N(C)C(=O)C21 (centres undefined) | 167 to 169 °C |
| O=C(NCCC12CCC(=O)N1C(=O)CC2)OCc1ccccc1 | 118 to 120 °C |
| COc1ccc(Br)c(COc2cccc3cc(OC)ccc23)c1 | 83 to 84 °C |
| CCc1nc2cnc3cc(OCc4ccccc4)ccc3c2n1CC(C)C | 127 °C |
| CCC1=NC2(O)c3cc(-c4ccc(C(F)(F)F)cc4)ccc3CC2S1 (centres undefined) | 145 °C |

| SMILES | melting point |
| --- | --- |
| NS(=O)(=O)c1ccc(NS(=O)(=O)/C=C/c2ccccc2)cc1 | 171 to 173 °C |
| COC(=O)c1ccc(OCCCOc2ccccc2)cc1O | 90 to 92 °C |
| CC1(C)OC(c2ccccc2)CN1C(=O)C(Cl)Cl (centres undefined) | 99.5 to 100 °C |
| CCOC(=O)c1cc2cc(CCNS(=O)(=O)c3ccc(Cl)cc3)ccc2o1 | 123 to 125 °C |
| CNC(=O)C(CCCl)(c1ccccc1)c1ccccc1 | 150 to 152 °C |
| O=C(O)C1CC1c1cc(=O)c2cc(-c3ccccc3)ccc2o1 (centres undefined) | 226 to 228 °C |
| CCn1c2ccccc2n2c(=O)c(C(=O)N3CCOCC3)cnc12 | 200 to 202 °C |
| Cc1nn(C)c(=O)c(-n2nc(-c3ccc(C(F)(F)F)cc3)cc2C)c1O | 191 to 194 °C |
| CCOC(=O)C1=C(C)NC(N)=C(C(=O)OCC)C1Cc1cccs1 (centres undefined) | 170 °C |
| CC(C)c1ccc(S(=O)(=O)n2c(Cc3ccc(C(=O)O)c(F)c3)cc3cc(C(F)(F)F)ccc32)cc1 | 197 °C |
| O=C(N[C@H]1CC[C@H](CCN2CCC(c3cccc4c3CCO4)CC2)CC1)c1ccc(N2CCOCC2)nc1 | 228 °C |
| C[C@H](NC(CCC(=O)O)C(=O)O)C(=O)N1CCC[C@H]1C(=O)O (some centres undefined) | 140 to 160 °C |
| N=C(NO)c1nc(-c2ccc(C(F)(F)F)cc2)cc(C(F)(F)F)n1 | 224 °C |
| Cc1oc(-c2ccccc2)nc1CCOc1ccc(CC(F)(C(=O)O)c2ccccc2)cc1 (centres undefined) | 163 to 165 °C |
| CCN1CCN2C(=O)c3ccccc3C12c1ccccc1 (centres undefined) | 122 to 124 °C |
| CC(=O)c1cc(C(C)=O)cc(N(C(C)=O)C(=O)Nc2ccccc2)c1 | 223 to 224 °C |
| O=C1CCC2(N1)C1C=CC(C1)C2c1ccccc1 (centres undefined) | 152 to 155 °C |
| N#CCCN1CCc2c3n(c4ccccc24)C(=O)CCC31 (centres undefined) | 156 to 157 °C |
| O=C1Nc2ccccc2C1C(=O)c1ccoc1 (centres undefined) | 185 to 186 °C |
| COc1ccc2[nH]cc(/C(C#N)=C/c3cccc(C#N)c3)c2c1 | 149 °C |
| Fc1cc(F)c(C(Cl)(Cl)Cl)cc1C(Cl)(Cl)Cl | 77 to 79 °C |
| CCCCCCCCCc1ccc(C(=O)O)c(O)c1 | 94 to 97 °C |
| CS(=O)(=O)Nc1cc2occc(=O)c2cc1Oc1ccccc1NC=O | 203 to 204 °C |
| CCCOC(=O)c1c(C)nsc1NC(=O)NC | 191 °C |
| CC(C)CC1(C(CCSc2cccs2)C(=O)NO)CCN(CCc2ccccc2)C1=O (centres undefined) | 109 to 110 °C |

| SMILES | melting point |
| --- | --- |
| C[C@]1(CN2CCN(C(=O)OCc3cc(Cl)cc(Cl)c3)CC2)Cn2cc([N+](=O)[O-])nc2O1 | 129 to 130 °C |
| CCCCCc1cc(O)c2c(c1)OC(C)(C)[C@@H]1CCC(=O)C[C@H]21 (relative stereo) | 120 to 134 °C |
| CCOP(=O)(C=Cc1ccc(N)cc1)OCC | 81 °C |
| CC(C)(C)c1ccc(NC(=O)c2cccc3cc(Oc4cc(CO)ncn4)ccc23)cc1 | 202 to 203 °C |
| CON(C)C(=O)C(C)NC(=O)OC(C)(C)C (centres undefined) | 150 to 151 °C |
| O=C1CCc2ccc(OCCCCN3CCCN(c4cccc(Cl)c4Cl)CC3)nc2N1 | 110 to 111 °C |
| CCN1CCCC1CNS(=O)(=O)c1ccc(Nc2ccnc3cc(Cl)ccc23)cc1 (centres undefined) | 200 to 202 °C |
| CC(C)(O)Cn1c(CO)nc2c(N)nc3cc(-c4ccc(F)c(F)c4)cnc3c21 | 256 to 258 °C |
| Cc1cccc(-c2c(=O)[nH]c3cc(Cl)c(Cl)cc3[n+]2[O-])c1 | 260 to 262 °C |
| CCC(CC)CNC(=O)c1ccc2cccc(Cc3ccc(C(=O)NS(=O)(=O)c4ccccc4)cc3OC)c2c1 | 210 to 211 °C |
| N#Cc1ccccc1NC1CCN(Cc2ccccc2)CC1 | 104 to 105 °C |
| CCn1nc2c(N)nc3ccccc3c2c1CCc1ccccc1 | 179 to 181 °C |
| Clc1cccc(CN(c2ncnc3[nH]ncc23)C2CCCC2)c1 | 186 to 187 °C |
| O=c1[nH]c2cc(Cl)ccc2c(O)c1-c1ccc2ccccc2c1 | > 350 °C |
| COc1ccc(-c2ccc(C#N)o2)cc1C(F)(F)F | 61 to 64 °C |
| COc1cccc2c1C13CCN(C)C(C2)C1CCC(=O)C3 (single isomer, unassigned; (-)) | 145 to 147 °C |
| CCOC(=O)c1csc(-c2cc3cccc(NS(=O)(=O)c4cccs4)c3[nH]2)n1 | 240 to 241 °C |
| NC(=O)c1ccc2c(O)cncc2c1 | > 250 °C |
| O=C(CC(CC(=O)c1ccc(F)cc1)c1cccc(-c2nnn[nH]2)c1)c1ccc(F)cc1 | 162 °C |
| O=C1Nc2c(F)cccc2C12COc1cc3c(cc12)CCO3 (centres undefined) | > 250 °C |
| C#CC1N(C(=O)Oc2ccccc2)c2ccc(OCc3ccccc3[N+](=O)[O-])cc2C23OC12CCCC3=O (centres undefined) | 128 to 130 °C |
| COc1ccc(-c2cnc(-c3ccc(Cl)cc3)nc2-c2ccc(OC)cc2)cc1 | 151 to 153 °C |
| Cc1ccc(S(=O)(=O)N2CCC[C@H]2C(=O)N[C@@H](C)C(=O)O)cc1 (Tos-Pro-Ala-OH) | 160 to 162 °C |
| CN1C(=O)C(C)(C)N=C(c2ccccc2F)c2cc(N)ccc21 | 190 to 191 °C |
| CCN(CC)Cc1nc2sc3c(c2c(-c2ccc(OC)c(OC)c2)c1Cl)CCN(Cc1ccccc1)C3 | 150 to 151 °C |

| SMILES | melting point |
| --- | --- |
| CCCCN1C(=O)c2cncnc2Nc2ccccc21 | 145 to 147 °C |
| CC(C)N(C(=O)COc1c(F)cc(-c2ccc(C(=O)O)cc2)cc1[N+](=O)[O-])C(C)C | 202 °C |
| CC(C)(c1ccc2ncccc2c1)n1nnc2ccc(-c3cnn(CCO)c3)nc21 | 95 to 98 °C |
| Nc1nc2ccccc2c2c1ncn2CCCCCS(=O)(=O)c1ccccc1 | 171 to 172 °C |
| CCCc1c(OCC(O)CSc2ccc(C(=O)CCC(=O)O)cc2F)ccc(C(C)=O)c1O (centres undefined) | 106 to 109 °C |
| N=C(c1ccccc1)c1cc(Cl)ccc1O | 129 to 131 °C |
| COc1cccc(CCC(c2ccccc2)C(O)c2ccc(O)cc2)c1 (centres undefined) | 100 to 103 °C |
| CSc1ccc(CC(=O)NC(NC(=NC#N)Nc2ccccc2C)C(C)(C)C)cc1 (centres undefined) | 151 to 152 °C |
| CC(C)(CO)Nc1nc(-c2cccc(C#N)c2)cs1 | 124 to 126 °C |
| COc1cccc(CC(O)C2CCNCC2)c1OC (centres undefined) | 82 to 84 °C |
| CC(=O)n1cc(C2=CCN(CCCN3c4cccc5cccc(c45)S3(=O)=O)CC2)c2ccccc21 | 163 °C |
| C#C[C@]1(C)CCc2c(C)c(OCc3ccccc3)c(C)c(C)c2O1 | 88 to 90 °C |
| COc1ccc2sc3cc(-c4nnn[nH]4)ccc3c(=O)c2c1 | > 350 °C |
| NNc1nc(C(F)(F)F)nc(-c2ccccc2)c1-c1ccccc1 | 182 to 186 °C |
| Cc1cc(C)c2c(c1O)C(=O)C(C)(C)C2 | 28 to 30 °C |
| CCCc1ccc(O)c(NC(=O)C(=O)OCC)c1 | 155 to 160 °C |
| COC(=O)C(=NO)c1ccccc1COc1ccccc1C | 115 °C |
| COC1OC(=O)c2cccc([N+](=O)[O-])c21 (centres undefined) | 115 to 118 °C |
| COc1ccc(C(O)C(=S)N(C)C)cc1 (centres undefined) | 101 °C |
| Cc1cc(C)c(CNc2c(C)nn(C)c2NCC(C)(C)C)c(C)c1 | 114 to 120 °C |
| NS(=O)(=O)c1ccc(C2=C(c3ccc(-c4cscn4)cc3)C(=O)OC2)cc1F | 194 °C |
| CC(O)CC#Cc1ccc(C(CC2CCCC2)C(=O)O)cc1 (centres undefined) | 73 to 76 °C |
| CS(=O)(=O)CCN1C(=O)CN=C(c2ccccc2F)c2cc(Cl)ccc21 | 155 to 156 °C |
| CCCCC[C@H]1CC[C@H](/C=C/COc2ccc(C=O)cc2)CC1 | 54 to 55 °C |

From a melting point compilation (Tetko et al.; mined from patent text by program, amines drawn as free bases though some values may be those of a salt)
